Measurements taken from US8618095B2 (Rigel Pharmaceuticals, Inc., priority 2010, dated 2013).
Counter-ions that a name gives are not always drawn.

The compounds below were run on Human mast cells (CHMC) (assay: LD Tryptase release assay in CHMC (mast cell activation induced by FcγR cross-linking)). Settings: Homo sapiens, Mast cell, anti-IgG stimulation, activity of tryptase released upon degranulation.
Type: cell-based
Summary of the method: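 Mast cells derived from CD38-negative progenitors were preincubated 1 h at 37 °C with compound in HEPES-buffered saline (pH 7.4, 0.1% BSA, compound diluted in buffer with 2% MeOH/1% DMSO). Cells were then stimulated 60 min with anti-human IgG (final 1 μg/mL). Released tryptase was measured on Z-Ala-Lys-Arg-AMC (30 min, room temperature, 355/460 nm) to give the IC50.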
`C[C@@H]1CN(c2ccc(Nc3ncc(F)c(Nc4ccc5c(n4)NC(=O)C(C)(C)O5)n3)cc2)CCO1` [Compound 118, N4-(2,2-dimethyl-3,4-dihydro-3-oxo-2H-pyrido[3,2-b][1,4]oxazin-6-yl)-5-fluoro-N2-[4-((2R)-2-methylmorpholino)phenyl]-2,4-pyrimidinediamine] was tested, and the IC50 was < 100 nM. For `CC1(C)Oc2ccc(Nc3nc(Nc4ccc(N5CCO[C@@H](CO)C5)cc4)ncc3F)nc2NC1=O` [Compound 128, N4-(2,2-dimethyl-3,4-dihydro-3-oxo-2H-pyrido[3,2-b][1,4]oxazin-6-yl)-5-fluoro-N2-[4-((2-hydroxymethyl)morpholino)phenyl]-2,4-pyrimidinediamine], the IC50 was < 100 nM. In the case of `Cc1cc(Nc2ncc(F)c(Nc3ccc4c(n3)NC(=O)C(C)(C)O4)n2)ccc1N1C[C@@H]2C[C@H]1CO2` [Compound 24, N4-(2,2-dimethyl-3,4-dihydro-3-oxo-2H-pyrido[3,2-b][1,4]oxazin-6-yl)-5-fluoro-N2-[3-methyl-4-((1S,4S)-5-oxa-2-aza-bicyclo[2.2.1]heptan-2-yl)phenyl]-2,4-pyrimidinediamine], the IC50 is reported as < 100 nM. `CO[C@@H]1CCN(c2ccc(Nc3ncc(F)c(Nc4ccc5c(n4)NC(=O)C(C)(C)O5)n3)cn2)C1` [Compound 65, N4-(2,2-dimethyl-3,4-dihydro-3-oxo-2H-pyrido[3,2-b][1,4]oxazin-6-yl)-5-fluoro-N2-[6-((3R)-3-methoxypyrrolidin-1-yl)pyridin-3-yl]-2,4-pyrimidinediamine] gave an IC50 of 100 to 500 nM. In the case of `CC(C)Oc1cc(Nc2ncc(F)c(Nc3ccc4c(n3)NC(=O)C(C)(C)O4)n2)ccc1N1CCOCC1` [Compound 45, N4-(2,2-dimethyl-3,4-dihydro-3-oxo-2H-pyrido[3,2-b][1,4]oxazin-6-yl)-5-fluoro-N2-[3-(2-propoxy)-4-morpholinophenyl]-2,4-pyrimidinediamine], the IC50 is reported as 1000 to 100000 nM. `C[C@@H]1COCCN1c1ccc(Nc2ncc(F)c(Nc3ccc4c(n3)NC(=O)CO4)n2)cn1` [Compound 51, N4-(3,4-dihydro-3-oxo-2H-pyrido[3,2-b][1,4]oxazin-6-yl)-5-fluoro-N2-[6-((3R)-3-methylmorpholino)pyridin-3-yl]-2,4-pyrimidinediamine] was tested, and the IC50 was < 100 nM. `Cc1cc(Nc2ncc(F)c(Nc3ccc4c(n3)NC(=O)C(C)(C)O4)n2)cnc1N1CCOCC1` [Compound 13, N4-(2,2-dimethyl-3,4-dihydro-3-oxo-2H-pyrido[3,2-b][1,4]oxazin-6-yl)-5-fluoro-N2-[5-methyl-6-morpholinopyridin-3-yl]-2,4-pyrimidinediamine] was tested, and the IC50 was < 100 nM. `CCN[C@@H]1CCN(c2ccc(Nc3ncc(F)c(Nc4ccc5c(n4)NC(=O)C(C)(C)O5)n3)cn2)C1` [Compound 68, N4-(2,2-dimethyl-3,4-dihydro-3-oxo-2H-pyrido[3,2-b][1,4]oxazin-6-yl)-5-fluoro-N2-[6-((3R)-3-(ethylamino)pyyriolidin-1-yl)pyridin-3-yl]-2,4-pyrimidinediamine] showed an IC50 of 100 to 500 nM. With `Cc1cc(Nc2ncc(F)c(Nc3ccc4c(n3)NC(=O)CO4)n2)cnc1N1CCOC(C)(C)C1` [Compound 12, N4-(3,4-dihydro-3-oxo-2H-pyrido[3,2-b][1,4]oxazin-6-yl)-5-fluoro-N2-[5-methyl-6-(2,2-dimethylmorpholino)pyridin-3-yl]-2,4-pyrimidinediamine] the IC50 was < 100 nM.

Same assay, conditions: anti-IgG stimulation, activity of tryptase released upon degranulation
Compound `O=C1COc2ccc(Nc3nc(Nc4ccc(N5CCOCC5)cc4)ncc3F)nc2N1COP(=O)(O)O` [Compound 114, N4-(3,4-dihydro-4-[(dihydrogenphosphonoxy)methyl]-3-oxo-2H-pyrido[3,2-b][1,4]oxazin-6-yl)-5-fluoro-N2-(4-morpholinophenyl)-2,4-pyrimidinediamine disodium salt] has an IC50 of 1000 to 100000 nM. With `Cc1cc(Nc2ncc(F)c(Nc3ccc4c(n3)N(COP(=O)(O)O)C(=O)C(C)(C)O4)n2)ccc1N1CCOCC1` [Compound 112, N4-(2,2-dimethyl-3,4-dihydro-4-[(dihydrogenphosphonoxy)methyl]-3-oxo-2H-pyrido[3,2-b][1,4]oxazin-6-yl)-5-fluoro-N2-(3-methyl-4-morpholinophenyl)-2,4-pyrimidinediamine disodium salt] the IC50 was 500 to 1000 nM.
